Data reported in US8628961B2, “Small molecule antagonists of phosphatidylinositol-3,4,5-triphosphate (PIP3) and uses thereof” (Tufts University, priority 2010, dated 2014).

Tests used:
U87MG cells = experiment: Combination with Akt kinase inhibitors in U87MG cells (western blot, ATP assay); assay type: cell-based, human
Experimental: U87MG cells were treated with 100 μM PIT-1, or 10 μM Akt inhibitor VIII (Calbiochem) or Akt inhibitor (Calbiochem), or 100 μM PIT-1 together with 10 μM Akt inhibitor VIII or Akt inhibitor, for 12 hr and then phosphorylation events were evaluated by western blot.

human cancer cells = experiment: Cancer cell migration, transwell migration and wound closure models; assay type: cell-based; conditions: model not specified
Experimental: Two models of cell migration were used, a transwell migration model and a wound closure model. Migration of cancer and endothelial cells was evaluated using 24-transwell Boyden chamber (Costar, Bedford, Mass.) with a polystyrene membrane (6.5 mm diameter, 10 μm thickness, and 8 μm pore size). Cells were suspended in serum-free media and seeded in the upper compartment of each well (2×10^4 cells/well) in the presence or absence of different compounds at the indicated concentrations. The lower compartment contained 600 μl of serum-free culture media supplemented with growth factors. After an 8-hr incubation at 37° C., cells were fixed and stained with 0.1% crystal violet. Non-migrating cells on the upper surface of the filter were removed, and the stained cells that migrated to the lower side were photographed using a phase-contrast microscope (Nikon, Japan) in five random fields. The cells were lysed with 10% acetic acid, and colorimetric determination was made at 595 nm using Wallac Victor 3 plate reader.
Cancer or endothelial cells were seeded into fibronectin-coated 96-well plates (2×10^4 cells/well). After reaching confluence, cell monolayers were scratched with a pipette tip to obtain a “wound”. The media and dislodged cells were aspirated and replaced by fresh serum-free media in the presence of growth factors, with or without compounds at different concentrations. After an 8-hr incubation at 37° C., cells were photographed using a phase-contrast microscope in five random fields. The width of wounded cell monolayers in images was measured and the inhibition rates of migration were calculated as inhibition rate=[1−(compound-treated group/control group)]×100%, and IC50 value was determined using Origin6 software (MicroCal, LLC, Northampton, Mass.).

Akt PH domain = Akt PH domain (Homo sapiens (Human), UniProt P31749); experiment: PH domain translocation assay (GFP fusion, plasma membrane); assay type: cell-based; conditions: PDGF stimulation
Experimental: Cells were transfected with the corresponding GFP-fusion vectors, serum starved overnight, and incubated with 100 μM PITs or PIT-1 is for 2 hr, followed by stimulation with 100 ng/ml PDGF or 250 ng/ml PMA for 5 min. The translocation was analyzed using fluorescent microscope and was quantitated by counting the number of cells with translocated PH domains in five random fields.
To begin characterizing cellular activity of PITs, a PH domain translocation assay was performed, measuring PIP3-induced association of GFP-fused PH domains with the plasma membrane. […] Varnai P et al. (1999) J Biol Chem 274:10983-9. Several PH-domain-containing proteins, which are known to bind PIP3 specifically and efficiently, were examined. […] Oikawa T et al. (2004) Nat Cell Biol 6:420-6.

[1] = Cell death in combination with inhibitors of mitochondrial respiration and ATP synthase; assay type: cell-based
Description: Elstrom R L et al. (2004) Cancer Res 64:3892-9.

[2] = test system: SV40-transformed mouse adult lung fibroblasts; experiment: Viability of Akt1-expressing versus Akt1-3 triple knockout fibroblasts; assay type: cell-based
Description: Shaughnessy J D (2008) Nature 454:172-3; Weinstein I G (2002) Science 297:63-4. Therefore, the possibility that PIT-1 may cause preferential cell death in the cells containing elevated PIP3 levels was examined. […] Li D M et al. (1998) Proc Natl Acad Sci USA 95:15406-11. […] Neshat M S et al. (2001) Proc Natl Acad Sci USA 98:10314-9.

Chain of Akt PH domain (P31749 5-108): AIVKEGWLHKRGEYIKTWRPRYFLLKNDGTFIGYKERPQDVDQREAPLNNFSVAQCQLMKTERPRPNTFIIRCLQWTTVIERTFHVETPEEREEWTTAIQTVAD

O=c1[nH]c2ccccc2n1C1CCN(Cc2ccc(-c3nc4cc5[nH]cnc5cc4nc3-c3ccccc3)cc2)CC1 [Akt inhibitor VIII]
combination of Akt inhibitors VIII and X (U87MG cells): no additive effect | cancer cell migration (human cancer cells): lack thereof | plasma membrane translocation of Akt PH domain (Akt PH domain): Neither Akt inhibitor X nor allosteric inhibitor VIII blocked membrane translocation | cell death with oligomycin, antimycin A, rotenone [1]: synergized | loss of viability in Akt1-expressing versus Akt1-3 triple knockout fibroblasts [2]: comparable
